Entries after “also recorded” stand apart in the source; their conditions may differ.
Assays:
[1] = 25° C.; cited from earlier work
A549 cells = assay: Migration of latex beads on A549 cell surface after application of surfactant (microgrid / semi-automated counting); type: cell-based; conditions: 4.5 μm latex beads on A549 cells, CELLocate microgrid, surfactant applied directly; p<0.05, ANOVA; water control showed no migration
Text: A particularly preferred embodiment of the present invention comprises the identification of molecules to be used in the pMDI to push the medication deeper into the lungs. For this purpose an in vitro technique to visualize and monitor migration of latex beads placed on tissue cells after application of the appropriate surfactant may be used. […] K. Fumoto, […]. […] The microgrid coverslips can be used to monitor and quantify bead movement on cell surfaces reflecting similar characteristics to tracheal and pulmonary tissues. […] The movement of latex beads may then be monitored by counting the beads before adding the surfactant and then again after allowing the surfactant to spread for a period of time (for example 10 seconds). […] The effect of pMDI-delivered surfactant, e.g., PTC, Survanta®, on latex bead movement can be determined using the above cell model. […] Beads in 220 μm^2 virtual square grids along a 220×11,000 μm lane (50 grids in total), predefined using the automated stage controller coupled to the microscope, can be counted and quantified, before (initial) and after (final) application of surfactant. Bead migration along an extended lane can then be monitored. […]

In the case of `FC(C(F)(F)F)C(F)(F)F` [HFA-227], the dielectric constant [1] is listed as 3.94.
For Phosphatidylcholine [PTC], the “migration of latex beads (bead count ratio Final:Initial)” value (A549 cells) was “significant migration of latex beads; also recorded: significantly migrate”.

— patent publication US8591954B2, “Phospholipid-based inhalation system” (Next Breath, LLC, priority 2006, dated 2013)
